# Measured values reported in patent US10695337B2, “Piperidin-4-yl azetidine derivatives as JAK1 inhibitors” (Incyte Corporation, priority 2010, dated 2020).
# Molecular target: human JAK1 (a.a. 837-1142)
# Experiment: In vitro JAK kinase assay (HTRF, phosphorylation of a biotinylated peptide), JAK1
# Type: biochemical
# Conditions: measured at 1 mM ATP; JAK2 IC50 / JAK1 IC50
# In short: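 N-terminal His-tagged catalytic domains, baculovirus-expressed in insect cells, phosphorylated a biotinylated peptide for 1 hr at room temperature. EDTA stop was followed by SA-APC and Eu-Py20 antibody for 40 minutes, with phosphopeptide read by HTRF.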
row,SMILES,IC50 Ratio JAK2/JAK1
1,"Cc1nc(F)ccc1NC(=O)N1CCC(N2CC(CC#N)(n3cc(-c4ncnc5[nH]ccc45)cn3)C2)CC1 [Example 199, 4-{3-(cyanomethyl)-3-[4-(7H-pyrrolo[2,3-d]pyrimidin-4-yl)-1H-pyrazol-1-yl]azetidin-1-yl}-N-(6-fluoro-2-methylpyridin-3-yl)piperidine-1-carboxamide]",10.0
2,"Cc1ccc(NC(=O)N2CCC(N3CC(CC#N)(n4cc(-c5ncnc6[nH]ccc56)cn4)C3)CC2)c(F)n1 [Example 200, 4-{3-(cyanomethyl)-3-[4-(7H-pyrrolo[2,3-d]pyrimidin-4-yl)-1H-pyrazol-1-yl]azetidin-1-yl}-N-(2-fluoro-6-methylpyridin-3-yl)piperidine-1-carboxamide]",6.7
3,"N#CCC1(n2cc(-c3ncnc4[nH]ccc34)cn2)CN(C2CCN(C(=O)Nc3ncccc3C(F)(F)F)CC2)C1 [Example 201, 4-{3-(cyanomethyl)-3-[4-(7H-pyrrolo[2,3-d]pyrimidin-4-yl)-1H-pyrazol-1-yl]azetidin-1-yl}-N-[3-(trifluoromethyl)pyridin-2-yl]piperidine-1-carboxamide]",3.6
4,"N#CCC1(n2cc(-c3ncnc4[nH]ccc34)cn2)CN(C2CCN(C(=O)Nc3ncccc3F)CC2)C1 [Example 202, 4-{3-(cyanomethyl)-3-[4-(7H-pyrrolo[2,3-d]pyrimidin-4-yl)-1H-pyrazol-1-yl]azetidin-1-yl}-N-(3-fluoropyridin-2-yl)piperidine-1-carboxamide]",6.4
5,"N#CCC1(n2cc(-c3ncnc4[nH]ccc34)cn2)CN(C2CCN(C(=O)Nc3ncc(F)cc3F)CC2)C1 [Example 203, 4-{3-(cyanomethyl)-3-[4-(7H-pyrrolo[2,3-d]pyrimidin-4-yl)-1H-pyrazol-1-yl]azetidin-1-yl}-N-(3,5-difluoropyridin-2-yl)piperidine-1-carboxamide]",8.6
6,"COc1ncccc1NC(=O)N1CCC(N2CC(CC#N)(n3cc(-c4ncnc5[nH]ccc45)cn3)C2)CC1 [Example 204, 4-{3-(cyanomethyl)-3-[4-(7H-pyrrolo[2,3-d]pyrimidin-4-yl)-1H-pyrazol-1-yl]azetidin-1-yl}-N-(2-methoxypyridin-3-yl)piperidine-1-carboxamide]",4.0
7,"Cc1nc(C(F)(F)F)ccc1NC(=O)N1CCC(N2CC(CC#N)(n3cc(-c4ncnc5[nH]ccc45)cn3)C2)CC1 [Example 205, 4-{3-(cyanomethyl)-3-[4-(7H-pyrrolo[2,3-d]pyrimidin-4-yl)-1H-pyrazol-1-yl]azetidin-1-yl}-N-[2-methyl-6-(trifluoromethyl)pyridin-3-yl]piperidine-1-carboxamide]",4.4
8,"COC(=O)c1ccccc1NC(=O)N1CCC(N2CC(CC#N)(n3cc(-c4ncnc5[nH]ccc45)cn3)C2)CC1 [Example 206, methyl 2-{[(4-{3-(cyanomethyl)-3-[4-(7H-pyrrolo[2,3-d]pyrimidin-4-yl)-1H-pyrazol-1-yl]azetidin-1-yl}piperidin-1-yl)carbonyl]amino}benzoate]",1.6
9,"COC(=O)c1cc(F)ccc1NC(=O)N1CCC(N2CC(CC#N)(n3cc(-c4ncnc5[nH]ccc45)cn3)C2)CC1 [Example 207, methyl 2-{[(4-{3-(cyanomethyl)-3-[4-(7H-pyrrolo[2,3-d]pyrimidin-4-yl)-1H-pyrazol-1-yl]azetidin-1-yl}piperidin-1-yl)carbonyl]amino}-5-fluorobenzoate]",2.5
10,"COC(=O)c1ccc(NC(=O)N2CCC(N3CC(CC#N)(n4cc(-c5ncnc6[nH]ccc56)cn4)C3)CC2)c(F)c1 [Example 208, methyl 4-{[(4-{3-(cyanomethyl)-3-[4-(7H-pyrrolo[2,3-d]pyrimidin-4-yl)-1H-pyrazol-1-yl]azetidin-1-yl}piperidin-1-yl)carbonyl]amino}-3-fluorobenzoate]",4.8
11,"CN(C)c1ccc(CN2CCC(N3CC(CC#N)(n4cc(-c5ncnc6[nH]ccc56)cn4)C3)CC2)c(F)c1C#N [Example 209, 3-[(4-{3-(Cyanomethyl)-3-[4-(7H-pyrrolo[2,3-d]pyrimidin-4-yl)-1H-pyrazol-1-yl]azetidin-1-yl}piperidin-1-yl)methyl]-6-(dimethylamino)-2-fluorobenzonitrile]",19.0
12,"N#CCC1(n2cc(-c3ncnc4[nH]ccc34)cn2)CN(C2CCN(Cc3cc(Cl)cc(Cl)c3)CC2)C1 [Example 210, {1-[1-(3,5-dichlorobenzyl)piperidin-4-yl]-3-[4-(7H-pyrrolo[2,3-d]pyrimidin-4-yl)-1H-pyrazol-1-yl]azetidin-3-yl}acetonitrile]",4.3
13,"N#CCC1(n2cc(-c3ncnc4[nH]ccc34)cn2)CN(C2CCN(Cc3cc(C(F)(F)F)ccc3Cl)CC2)C1 [Example 211, {1-{1-[2-chloro-5-(trifluoromethyl)benzyl]piperidin-4-yl}-3-[4-(7H-pyrrolo[2,3-d]pyrimidin-4-yl)-1H-pyrazol-1-yl]azetidin-3-yl}acetonitrile]",5.0
14,"N#CCC1(n2cc(-c3ncnc4[nH]ccc34)cn2)CN(C2CCN(Cc3cccc(C(F)(F)F)c3F)CC2)C1 [Example 212, {1-{1-[2-fluoro-3-(trifluoromethyl)benzyl]piperidin-4-yl}-3-[4-(7H-pyrrolo[2,3-d]pyrimidin-4-yl)-1H-pyrazol-1-yl]azetidin-3-yl}acetonitrile]",7.8
15,"N#CCC1(n2cc(-c3ncnc4[nH]ccc34)cn2)CN(C2CCN(Cc3c(F)cccc3C(F)(F)F)CC2)C1 [Example 213, {1-{1-[2-fluoro-6-(trifluoromethyl)benzyl]piperidin-4-yl}-3-[4-(7H-pyrrolo[2,3-d]pyrimidin-4-yl)-1H-pyrazol-1-yl]azetidin-3-yl}acetonitrile]",9.7
16,"N#CCC1(n2cc(-c3ncnc4[nH]ccc34)cn2)CN(C2CCN(Cc3cc4ccccc4nc3Cl)CC2)C1 [Example 214, {1-{1-[(2-chloroquinolin-3-yl)methyl]piperidin-4-yl}-3-[4-(7H-pyrrolo[2,3-d]pyrimidin-4-yl)-1H-pyrazol-1-yl]azetidin-3-yl}acetonitrile]",2.5
17,"N#CCC1(n2cc(-c3ncnc4[nH]ccc34)cn2)CN(C2CCN(Cc3cc(F)cc(F)c3)CC2)C1 [Example 215, {1-[1-(3,5-difluorobenzyl)piperidin-4-yl]-3-[4-(7H-pyrrolo[2,3-d]pyrimidin-4-yl)-1H-pyrazol-1-yl]azetidin-3-yl}acetonitrile]",5.7
18,"COc1cccc(F)c1CN1CCC(N2CC(CC#N)(n3cc(-c4ncnc5[nH]ccc45)cn3)C2)CC1 [Example 218, {1-[1-(2-fluoro-6-methoxybenzyl)piperidin-4-yl]-3-[4-(7H-pyrrolo[2,3-d]pyrimidin-4-yl)-1H-pyrazol-1-yl]azetidin-3-yl}acetonitrile]",2.6
19,"N#CCC1(n2cc(-c3ncnc4[nH]ccc34)cn2)CN(C2CCN(Cc3cccc(Cl)c3Cl)CC2)C1 [Example 219, {1-[1-(2,3-dichlorobenzyl)piperidin-4-yl]-3-[4-(7H-pyrrolo[2,3-d]pyrimidin-4-yl)-1H-pyrazol-1-yl]azetidin-3-yl}acetonitrile]",2.4
20,"N#CCC1(n2cc(-c3ncnc4[nH]ccc34)cn2)CN(C2CCN(Cc3ccc(F)c(C#N)c3)CC2)C1 [Example 220, 5-[(4-{3-(cyanomethyl)-3-[4-(7H-pyrrolo[2,3-d]pyrimidin-4-yl)-1H-pyrazol-1-yl]azetidin-1-yl}piperidin-1-yl)methyl]-2-fluorobenzonitrile]",4.4
21,"N#CCC1(n2cc(-c3ncnc4[nH]ccc34)cn2)CN(C2CCN(Cc3ccc(-c4conn4)cc3)CC2)C1 [Example 221, {1-{1-[4-(1,2,3-oxadiazol-4-yl)benzyl]piperidin-4-yl}-3-[4-(7H-pyrrolo[2,3-d]pyrimidin-4-yl)-1H-pyrazol-1-yl]azetidin-3-yl}acetonitrile]",1.3
22,"N#CCC1(n2cc(-c3ncnc4[nH]ccc34)cn2)CN(C2CCN(Cc3cccc(C#N)c3)CC2)C1 [Example 223, 3-[(4-{3-(cyanomethyl)-3-[4-(7H-pyrrolo[2,3-d]pyrimidin-4-yl)-1H-pyrazol-1-yl]azetidin-1-yl}piperidin-1-yl)methyl]benzonitrile]",5.9
23,"COc1nc(CN2CCC(N3CC(CC#N)(n4cc(-c5ncnc6[nH]ccc56)cn4)C3)CC2)ccc1C#N [Example 224, 6-[(4-{3-(cyanomethyl)-3-[4-(7H-pyrrolo[2,3-d]pyrimidin-4-yl)-1H-pyrazol-1-yl]azetidin-1-yl}piperidin-1-yl)methyl]-2-methoxynicotinonitrile]",2.4
24,"N#CCC1(n2cc(-c3ncnc4[nH]ccc34)cn2)CN(C2CCN(Cc3cc(Br)nc(Br)c3)CC2)C1 [Example 225, {1-{1-[(2,6-dibromopyridin-4-yl)methyl]piperidin-4-yl}-3-[4-(7H-pyrrolo[2,3-d]pyrimidin-4-yl)-1H-pyrazol-1-yl]azetidin-3-yl}acetonitrile]",3.8
25,"N#CCC1(n2cc(-c3ncnc4[nH]ccc34)cn2)CN(C2CCN(Cc3ccnc(Br)c3)CC2)C1 [Example 226, {1-{1-[(2-bromopyridin-4-yl)methyl]piperidin-4-yl}-3-[4-(7H-pyrrolo[2,3-d]pyrimidin-4-yl)-1H-pyrazol-1-yl]azetidin-3-yl}acetonitrile]",1.9
26,"N#CCC1(n2cc(-c3ncnc4[nH]ccc34)cn2)CN(C2CCN(Cc3c(F)cccc3Cl)CC2)C1 [Example 227, {1-[1-(2-chloro-6-fluorobenzyl)piperidin-4-yl]-3-[4-(7H-pyrrolo[2,3-d]pyrimidin-4-yl)-1H-pyrazol-1-yl]azetidin-3-yl}acetonitrile]",7.9
27,"N#CCC1(n2cc(-c3ncnc4[nH]ccc34)cn2)CN(C2CCN(Cc3c(F)ccc(Cl)c3F)CC2)C1 [Example 228, {1-[1-(3-chloro-2,6-difluorobenzyl)piperidin-4-yl]-3-[4-(7H-pyrrolo[2,3-d]pyrimidin-4-yl)-1H-pyrazol-1-yl]azetidin-3-yl}acetonitrile]",3.9
